Results from ChEMBL document CHEMBL1201862, “PubChem BioAssay data set” (2004).
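Method: 48-hour compound exposure of cells in 96-well plates, five concentrations, linear interpolation of endpoints. GI50 is the concentration that inhibits growth by half.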 The source made the active and inactive calls. No stated cut-off is given here; in the data, active = GI50 up to about 1.1 µM and inactive = higher.

Legend:
Experiment in all cases: inhibition of tumour cell growth, NCI panel, 48 h
A498 = system: A498
CAKI-1 = system: CAKI-1
DMS-273 = system: DMS-273
DU-145 = system: DU-145
EKVX = system: EKVX
HCC 2998 = system: HCC 2998
HCT-116 = system: HCT-116
IGROV-1 = system: IGROV-1
KM12 = system: KM12
LOX IMVI = system: LOX IMVI
MCF7 = system: MCF7
MDA-MB-435 = system: MDA-MB-435
OVCAR-8 = system: OVCAR-8
SF-268 = system: SF-268
SK-MEL-28 = system: SK-MEL-28
SK-MEL-2 = system: SK-MEL-2
SN12C = system: SN12C
SNB-19 = system: SNB-19
SNB-75 = system: SNB-75
TK-10 = system: TK-10

CN(C)CC1CC/C(=C\c2ccc(O)cc2)C1=O (stereo unspecified) was tested, and the GI50 (A498) was 9.35 µM (inactive), the GI50 (CAKI-1) was 1.63 µM (inactive) and the GI50 (DMS-273) was 3.3 µM (inactive). For the same compound, the GI50 (DU-145) was 16.1 µM (inactive), the GI50 (EKVX) was 4.83 µM (inactive) and the GI50 (HCC 2998) was 10.7 µM (inactive). The GI50 (HCT-116) was 2 µM (inactive), the GI50 (IGROV-1) was 11.3 µM (inactive) and the GI50 (KM12) was 4.18 µM (inactive). The GI50 (LOX IMVI) was 2.3 µM (inactive), the GI50 (MCF7) was 1.66 µM (inactive) and the GI50 (MDA-MB-435) was 5.07 µM (inactive). For the same compound, the GI50 (OVCAR-8) was 4.6 µM (inactive), the GI50 (SF-268) was 9.62 µM (inactive) and the GI50 (SK-MEL-28) was 2.48 µM (inactive). The GI50 (SK-MEL-2) was 8.28 µM (inactive), the GI50 (SN12C) was 5.64 µM (inactive) and the GI50 (SNB-19) was 16.9 µM (inactive). The GI50 (SNB-75) was 11 µM (inactive) and the GI50 (TK-10) was 3.2 µM (inactive).
With C/C(=N\N=C(/S)N(C)C)c1cccc[n+]1[O-] the GI50 (A498) was > 100 µM (inactive), the GI50 (CAKI-1) was 32.4 µM (inactive) and the GI50 (DMS-273) was 12.5 µM (inactive). The GI50 (DU-145) was 59 µM (inactive), the GI50 (EKVX) was 25.9 µM (inactive) and the GI50 (HCC 2998) was 19.9 µM (inactive). For the same compound, the GI50 (HCT-116) was 0.489 µM (active), the GI50 (IGROV-1) was 45.3 µM (inactive) and the GI50 (KM12) was 45.5 µM (inactive). For the same compound, the GI50 (LOX IMVI) was 20.5 µM (inactive), the GI50 (MCF7) was 8.05 µM (inactive) and the GI50 (MDA-MB-435) was 65.8 µM (inactive). The GI50 (OVCAR-8) was 23.7 µM (inactive), the GI50 (SF-268) was 38.2 µM (inactive) and the GI50 (SK-MEL-28) was 73.5 µM (inactive). For the same compound, the GI50 (SK-MEL-2) was 38.5 µM (inactive), the GI50 (SN12C) was 79.1 µM (inactive) and the GI50 (SNB-19) was 91 µM (inactive). The GI50 (SNB-75) was 93.1 µM (inactive) and the GI50 (TK-10) was 82.2 µM (inactive).
With O=C1C=C(Br)C(=O)C12CCc1ccccc12 (stereo unspecified) the GI50 (A498) was 4.61 µM (inactive), the GI50 (CAKI-1) was 6.47 µM (inactive) and the GI50 (DMS-273) was 18.3 µM (inactive). The GI50 (DU-145) was 16.2 µM (inactive), the GI50 (EKVX) was 25.4 µM (inactive) and the GI50 (HCC 2998) was 22.3 µM (inactive). The GI50 (HCT-116) was 10.5 µM (inactive), the GI50 (IGROV-1) was 20.5 µM (inactive) and the GI50 (KM12) was 21.1 µM (inactive). The GI50 (LOX IMVI) was 12.5 µM (inactive), the GI50 (MCF7) was 16.5 µM (inactive) and the GI50 (MDA-MB-435) was 14.7 µM (inactive). For the same compound, the GI50 (OVCAR-8) was 14.9 µM (inactive), the GI50 (SF-268) was 22.3 µM (inactive) and the GI50 (SK-MEL-28) was 12.2 µM (inactive). For the same compound, the GI50 (SK-MEL-2) was 19.6 µM (inactive), the GI50 (SN12C) was 17.3 µM (inactive) and the GI50 (SNB-19) was 32.9 µM (inactive). For the same compound, the GI50 (SNB-75) was 13.6 µM (inactive) and the GI50 (TK-10) was 17.8 µM (inactive).
In the case of CC(C)(C)/N=C1/CC(C)(C)c2ccccc2/C(=N\c2ccccc2)S1, the GI50 (A498) is reported as 43 µM (inactive), the GI50 (CAKI-1) is reported as 40.2 µM (inactive) and the GI50 (DMS-273) is reported as 32.1 µM (inactive). For the same compound, the GI50 (EKVX) was 55.5 µM (inactive), the GI50 (HCC 2998) was 35.2 µM (inactive) and the GI50 (HCT-116) was 33.4 µM (inactive). The GI50 (IGROV-1) was 48.3 µM (inactive), the GI50 (KM12) was 26.8 µM (inactive) and the GI50 (LOX IMVI) was 18.6 µM (inactive). The GI50 (OVCAR-8) was 41.8 µM (inactive), the GI50 (SF-268) was 28.2 µM (inactive) and the GI50 (SK-MEL-28) was 37.4 µM (inactive). For the same compound, the GI50 (SK-MEL-2) was 34.4 µM (inactive), the GI50 (SN12C) was 29.4 µM (inactive) and the GI50 (SNB-19) was 36.2 µM (inactive). The GI50 (SNB-75) was 32.5 µM (inactive) and the GI50 (TK-10) was 75.9 µM (inactive).
For O=C(CC(=O)n1nc(-c2ccccc2)c(/N=N/c2ccccc2Cl)c1-c1ccccc1)Nc1ccc(Cl)cc1, the GI50 (A498) was > 100 µM (inactive), the GI50 (CAKI-1) was > 100 µM (inactive) and the GI50 (DMS-273) was > 64.3 µM (inactive). The GI50 (EKVX) was > 100 µM (inactive), the GI50 (HCC 2998) was > 100 µM (inactive) and the GI50 (HCT-116) was > 41.3 µM (inactive). For the same compound, the GI50 (IGROV-1) was > 100 µM (inactive), the GI50 (KM12) was > 100 µM (inactive) and the GI50 (LOX IMVI) was > 44.4 µM (inactive). For the same compound, the GI50 (OVCAR-8) was > 100 µM (inactive), the GI50 (SF-268) was > 100 µM (inactive) and the GI50 (SK-MEL-28) was > 100 µM (inactive). For the same compound, the GI50 (SK-MEL-2) was > 100 µM (inactive), the GI50 (SN12C) was > 100 µM (inactive) and the GI50 (SNB-19) was > 100 µM (inactive). The GI50 (SNB-75) was > 100 µM (inactive) and the GI50 (TK-10) was > 96.2 µM (inactive).
In the case of Cc1ccccc1C(=O)c1ccccc1O, the GI50 (A498) is reported as > 100 µM (inactive), the GI50 (CAKI-1) is reported as > 84.3 µM (inactive) and the GI50 (DMS-273) is reported as > 100 µM (inactive). The GI50 (EKVX) was > 100 µM (inactive), the GI50 (HCC 2998) was > 100 µM (inactive) and the GI50 (HCT-116) was > 100 µM (inactive). The GI50 (IGROV-1) was > 100 µM (inactive), the GI50 (KM12) was > 100 µM (inactive) and the GI50 (LOX IMVI) was > 100 µM (inactive). The GI50 (OVCAR-8) was > 100 µM (inactive), the GI50 (SF-268) was > 100 µM (inactive) and the GI50 (SK-MEL-28) was > 100 µM (inactive). For the same compound, the GI50 (SK-MEL-2) was > 100 µM (inactive), the GI50 (SN12C) was > 100 µM (inactive) and the GI50 (SNB-19) was > 100 µM (inactive). The GI50 (SNB-75) was > 79.6 µM (inactive) and the GI50 (TK-10) was > 100 µM (inactive).
In the case of COc1ccc(Cc2cc(OC)c(OC)c(OC)c2)cc1, the GI50 (A498) is reported as 0.27 µM (active), the GI50 (CAKI-1) is reported as 0.254 µM (active) and the GI50 (DMS-273) is reported as 0.104 µM (active). For the same compound, the GI50 (DU-145) was 0.328 µM (active), the GI50 (EKVX) was 1.14 µM (inactive) and the GI50 (HCC 2998) was 0.226 µM (active). The GI50 (HCT-116) was 0.207 µM (active), the GI50 (IGROV-1) was 0.863 µM (active) and the GI50 (KM12) was 0.144 µM (active). The GI50 (LOX IMVI) was 0.393 µM (active), the GI50 (MCF7) was 0.203 µM (active) and the GI50 (MDA-MB-435) was 0.0236 µM (active). The GI50 (OVCAR-8) was 0.504 µM (active), the GI50 (SF-268) was 1.27 µM (inactive) and the GI50 (SK-MEL-28) was 0.479 µM (active). The GI50 (SK-MEL-2) was 0.218 µM (active), the GI50 (SN12C) was 0.671 µM (active) and the GI50 (SNB-19) was 0.324 µM (active). For the same compound, the GI50 (SNB-75) was 0.192 µM (active) and the GI50 (TK-10) was 6.79 µM (inactive).
CN(CO)c1nc(N(C)CO)nc(N(C)CO)n1 [TRIMELAMOL] was tested, and the GI50 (A498) was 23.7 µM (inactive), the GI50 (CAKI-1) was 23.8 µM (inactive) and the GI50 (DMS-273) was 7.6 µM (inactive). The GI50 (DU-145) was 25.7 µM (inactive), the GI50 (EKVX) was 19.7 µM (inactive) and the GI50 (IGROV-1) was 23.7 µM (inactive). For the same compound, the GI50 (KM12) was 15.1 µM (inactive), the GI50 (LOX IMVI) was 9.86 µM (inactive) and the GI50 (MCF7) was 16.1 µM (inactive). The GI50 (MDA-MB-435) was 20.1 µM (inactive), the GI50 (OVCAR-8) was 14.5 µM (inactive) and the GI50 (SK-MEL-28) was 13.6 µM (inactive). The GI50 (SNB-19) was 16.1 µM (inactive), the GI50 (SNB-75) was 18.5 µM (inactive) and the GI50 (TK-10) was 31.8 µM (inactive).
